The values below come from patent US7754887B2, “Process for production of sulfoxide derivatives or salts thereof in the amorphous state” (EISAI R&D Management Co., Ltd., priority 2003, dated 2010).

Data set [1] in a line: Measurement of specific surface (nitrogen-absorption isotherm, BET method). The class given is physicochemical. The settings on record: Sodium Salt; for Specific surface: BET method, nitrogen absorption at 77 K after vacuum degassing at 50° C.; for Specific surface, relative comparison: relative to the freeze-dried product. As to the method: Measurement of Specific Surface:
As for each of amorphous substances of 2-[[4-(3-methoxypropoxy)-3-methylpyridine-2-yl]methylsulfinyl]-1H-benzimidazole sodium salt obtained by freeze-drying (Reference example 2), heat-drying (Example 3), respectively, the nitrogen-absorption isotherms were measured at liquid nitrogen temperature (77 K) by a high accuracy full automatic gas absorption equipment “BELSORP 36” (prepared by Japan Bell) after vacuum degassing at 50° C. These isotherms were analyzed by BET method to obtain the specific surface.

Data set [2] can be described thus: Measurement of particle size distribution by laser diffractometry (Microtrac X100). The note with it: Sodium Salt; for particle size distribution: Microtrac X100, FIG. 4 and FIG. 5; for 90% cumulative diameter: calculated by measurement of the particle size distribution. It is filed as physicochemical. Here is the method: The measurement of particle size distribution by laser diffractometry can be conducted, for example, by using “Microtrac X100” (made by Leeds And Northrup). In the case where the particle size distribution of the amorphous substance of sulfoxide derivative (I) or the salt thereof, which is prepared by conducting the above-mentioned heat-drying, is measured by the laser diffractometry, the amorphous substance of sulfoxide derivative (I) or the salt thereof has 50 μm or less, preferably 30 μm or less of average particle diameter, and 80 μm or less, preferably 50 μm or less of 90% cumulative diameter.

The conditions of data set [3]: scan speed 2° C./min, 20 to 120° C.; FIG. 6.

Where only a bound is given, the exact number is not on record here.

`COCCCOc1ccnc(C[S+]([O-])c2nc3ccccc3[nH]2)c1C.[Na]` (stereo not shown) [The freeze-dried product, 2-[[4-(3-methoxypropoxy)-3-methylpyridine-2-yl]methylsulfinyl]-1H-benzimidazole Sodium Salt]: in data set [1], the Specific surface turned out to be 2.3 m^2/g and the “Specific surface, relative comparison” value came to 1.00. Also, in data set [2], the particle size distribution result is reported as “broad” and the 90% cumulative diameter is 192.3 μm.

`COCCCOc1ccnc(C[S+]([O-])c2nc3ccccc3[nH]2)c1C.[Na]` (stereo not shown) [The heat-dried product, 2-[[4-(3-methoxypropoxy)-3-methylpyridine-2-yl]methylsulfinyl]-1H-benzimidazole Sodium Salt]: in data set [1], the Specific surface was determined as 1.6 m^2/g and the “Specific surface, relative comparison” value amounted to 0.70. Also, in data set [2], the particle size distribution result is on record as “sharp” and the 90% cumulative diameter is listed as 18.0 μm.

Take `CC(C)=O.COCCCOc1ccnc(C[S+]([O-])c2nc3ccccc3[n-]2)c1C.[Na+]` (stereo not shown) [Acetone Complex of 2-[[4-(3-methoxypropoxy)-3-methylpyridine-2-yl]methylsulfinyl]-1H-benzimidazole Sodium Salt]: in data set [3], the “temperature at which the acetone starts to be effectively decreased” value was ≥ 76.7 °C and the “temperature at which the weight starts to be decreased” value was ≥ 65.7 °C.
